Measurements as given in patent publication US6680342B2, “Methods and compositions for inhibiting the proliferation of prostate cancer cells” (priority 2001, dated 2004).

Assays:
Sp1 = assay: Western blot of Sp1, LNCaP cells; type: cell-based, human
Protocol: (§3) Both cell lines were propagated in 24-well, 60 or 100 mm culture dishes at the desired density in RPMI 1640 (Mediatech, Herndon, Va.) supplemented with 5% fetal calf serum (FCS) (Biofluids, Rockville, Md.) at 37° C. and 5% CO2 until reaching 50-70% confluence.
(§4) LNCaP or LAPC-4 cells were plated in 10 cm dishes at 9×10^5 cells per dish in RPMI 1640 and 5% FCS. […] Cells were harvested at designated times, and the whole cell lysate was prepared according to manufacturer's instructions (Santa Cruz, Santa Cruz, Calif.). […] Protein levels were measured with a BioRad DC protein assay (BioRad, Hercules, Calif.). Protein samples (20 μg) were loaded into precast 4-12% NuPage gels (Novex, San Diego, Calif.), run with MOPS buffer, and transferred onto a nitrocellulose membrane (BioRad) according to the manufacturer's instructions. A Ponceau S staining was performed for total protein staining and visualized with a digital camera. The membranes were blocked overnight at 4° C. in TBST (20 mM Tris-HCl (pH 8.0), 137 mM NaCl, and 0.1% Tween 20) and 5% dry milk. The membranes were washed 3 times for ten min each with TBST. Primary antibody for the androgen receptor (1:2,000 dilution) (Pharmingen, San Diego, Calif.), Sp1 (1:2,000 dilution) (Santa Cruz) or heat shock protein70 (Hsp70) (1:1,000 diultion) (StressGene Biotechnologies, Victoria, B.C.) was incubated at room temperature for 1 hr. […]

male and female rats = details: approximately 40 to 1900 mg/kg/day; cited from earlier work
hK2 [1] = assay: hK2 protein in spent media, immunometric assay, LAPC-4 cells; type: cell-based, human; details: LAPC-4, 5 days, with or without Mib, normalized
PSA [2] = assay: Northern blot of PSA mRNA, LNCaP cells; type: cell-based, human; details: in the presence of androgen, 24 hrs
Protocol: (§1) The films were autoradiographed at −70° C. overnight.

PSA [3] = assay: PSA protein in spent media, immunometric assay, LAPC-4 cells; type: cell-based, human; details: LAPC-4, 5 days, with or without Mib, normalized
NKX3.1 = assay: Northern blot of NKX3.1 mRNA, LNCaP cells; type: cell-based, human; details: in the presence of androgen, 24 hrs
Protocol: as §1

ODC = assay: Northern blot of ODC mRNA, LNCaP cells; type: cell-based, human; details: in the presence of androgen, 24 hrs
Protocol: as §1

[4] = system: heat shock protein70 (Hsp70); assay: Western blot of heat shock protein70, LNCaP cells; type: cell-based, human
Protocol: as §3, §4

PSA [5] = assay: PSA protein in spent media, immunometric assay, LNCaP cells; type: cell-based, human; details: 5 days, with or without Mib, normalized by MTS
Protocol: (§2) LNCaP cells were seeded at 2×10^4 cells per well in 24 well plates. […] After a 5 day incubation, the spent media were harvested, and the levels of PSA and hK2 quantified by an immunometric assay as described previously (Hsieh et al., 1997, Cancer Res., 57:2651-6). MTS assays were performed (Promega, Madison, Wis.) as per the manufacturer's instructions. The protein levels of PSA and hK2 were normalized by cell density measurements with the MTS assay.

hK2 [6] = assay: hK2 protein in spent media, immunometric assay, LNCaP cells; type: cell-based, human; details: 5 days, with or without Mib, normalized by MTS
Protocol: as §2

SMILES: O=c1c(O)c(-c2ccc(O)c(O)c2)oc2cc(O)cc(O)c12 [quercetin, Quercetin]
- Sp1 protein level (Sp1): not affected
- effects on survival (male and female rats): no treatment related effects on survival
- hK2 protein levels (hK2 [1]): inhibits both PSA and hK2 protein levels in a dose-dependent manner
- PSA mRNA levels (PSA [2]): greatly reduced
- PSA protein levels (PSA [3]): inhibits both PSA and hK2 protein levels in a dose-dependent manner
- NKX3.1 mRNA levels (NKX3.1): greatly reduced
- ODC mRNA levels (ODC): greatly reduced
- Hsp70 protein level [4]: not affected
- PSA protein levels (PSA [5]): inhibits both PSA and hK2 protein levels in a dose-dependent manner
- hK2 protein levels (hK2 [6]): inhibits both PSA and hK2 protein levels in a dose-dependent manner
